# Reference: patent publication US11241031B2, “Rebaudioside A and stevioside with improved solubilities” (SWEET GREEN FIELDS USA, LLC, priority 2014, dated 2022)
# What was measured:
# [1] = Double-blind Flash sensory analysis of hydrolyzed D-glucose on RA/RB and RA97; design: species or system human; scale not given here; settings: about 300 ppm in distilled H2O, A = 9.6 ppm, B = 4.8 ppm reacted glucose
# Method: Experiment 2: Testing the Sensory Effects of Hydrolyzed D-glucose on RA/RB and RA97
# 1. To replicate the composition of a dried RA/RB hydrolyte treated with 0.625 mL of reagent, 5 g of RA/RB using a 61:39 ratio of RA97:RB was prepared, making sure to mix the sample thoroughly to ensure homogenization. (3.05 g RA97+1.95 g RB=5 g RA/RB blend). […] HPLC was used to confirm replication.
# 2. The amount of liquid D-glucose from each vial to be equivalent to 0.96 mg D-glucose from vial A/0.48 mg reacted D-glucose from vial B (representing the reaction product from use of 300 ppm of Stevia reacted with the highest and mid-level amount of 20% NaOH (0.625 mL and 0.3215 mL respectively) would be:
# 3. The following solution sets were created:
# i. 299.04 mg RA/RB blend+668.5µL D-Glucose solution vial A+distilled H2O to a final volume of 1,000 mL (299.04 ppm RA/RB+9.6 ppm reacted glucose).
# ii. 299.52 mg RA/RB blend+668.5µL D-Glucose solution vial B+distilled H2O to a final volume of 1,000 mL (299.52 ppm RA/RB+4.8 ppm reacted glucose).
# iii. 300 mg RA/RB blend+distilled H2O to a final volume of 1,000 mL (300 ppm RA/RB).
# i. 299.04 mg RA97+668.5µL D-Glucose solution vial A+distilled H2O to a final volume of 1,000 mL (299.04 ppm RA97+9.6 ppm reacted glucose).
# ii. 299.52 mg RA97+668.5µL D-Glucose solution vial B+distilled H2O to a final volume of 1,000 mL ([…]+4.8 ppm reacted glucose).
# iii. 300 mg RA97+distilled H2O to a final volume of 1,000 mL (300 ppm RA97).
# Each set was tasted using double-blind Flash sensory analysis (number of analysts=2).
# [2] = cited from earlier work
# [3] = Taste profile (0-5 scale): different salt conditions (Example 11); design: species or system human; settings: control as named at the place
# Method: To evaluate the effect of different salt conditions on the resulting taste profiles relative to a control sample (i.e., 059 containing no salt), raw materials were mixed with pure water as indicated in Tables 28-31 to obtain the aqueous solutions as indicated. Taste profiles were determined as described above in Examples 9 and 10.
# [4] = Evaluation of other sweeteners and inorganic salts on the taste profile (Example 7); design: species or system human; settings: for taste profile results, potassium chloride vs sodium chloride: Test 1, salt as component of the composition
# Excerpt: Evaluation of the Effects of Other Sweeteners and Inorganic Salts on the Taste Profile of the Composition
# Test 1: Evaluation of Compositions Comprising Sodium Chloride and Potassium Chloride
# Test 2: Evaluation of Compositions Comprising Various Sweeteners
# [5] = Taste profiling of sample formulations (Example 4, Test 1 and Test 2); design: species or system human; settings: Test 2; added to RA/RB solution
# Method: The samples in lines 2, 4, and 8 of FIG. 1 (0.0625, 0.25, and 0.5625 20% NaOH added) were prepared by mixing raw materials and then formulated in to solutions.
# Mixed product: prepared by simply mixing raw materials according to the ratio of Lot #15-0100.
# [6] = Taste profile (0-5 scale): adding additional steviol glycosides (Example 12); design: species or system human; settings: added SG at 1.9 wt %; control without any added SGs
# Method: To evaluate the effect of adding additional SGs on taste profiles relative to a control sample, raw materials were mixed with pure water as indicated in Table 32 to obtain the aqueous solutions as indicated. Taste profiles were determined as described above in Examples 9 and 10.
compound,measurement,setting,value
"C=C1C[C@@]23CC[C@H]4[C@@](C)(CCC[C@@]4(C)C(=O)O[C@@H]4O[C@H](CO)[C@@H](O)[C@H](O)[C@H]4O)[C@@H]2CC[C@]1(O[C@@H]1O[C@H](CO)[C@@H](O)[C@H](O[C@@H]2O[C@H](CO)[C@@H](O)[C@H](O)[C@H]2O)[C@H]1O[C@@H]1O[C@H](CO)[C@@H](O)[C@H](O)[C@H]1O)C3 [RA97, Rebaudioside A]",T#10 Bitter,[1],2.3
same,T#10 Linger,[1],5
same,T#10 Ov. Like,[1],6
same,T#10 Sugar Like Body,[1],3.2
same,T#10 Sweetness,[1],5.8
same,T#11 Bitter,[1],5
same,T#11 Dry,[1],5.9
same,T#11 Linger,[1],5
same,T#11 Ov. Like,[1],6.5
same,T#11 Sugar Like Body,[1],4.4
same,T#11 Sweetness,[1],6.8
same,solubility,[2]; in water at 25° C.,0.8%
[Ca+2].[Cl-].[Cl-] [calcium chloride],taste profile relative to the control sample,[3],not significantly affected
O=C(CO)[C@@H](O)[C@H](O)[C@H](O)CO [fructose],effect of sweetener on taste profile relative to glucose,"[4]; Test 2, sweetener as component of the composition",slightly lower than glucose
O=C[C@H](O)[C@@H](O)[C@H](O)[C@H](O)CO [glucose],effect of added component on the taste profile,[5],improved the “sugar like” profile
O=S(=O)([O-])[O-].[Mg+2] [magnesium sulfate],taste profile relative to the control sample,[3],not significantly affected
O=C([O-])[O-].[K+].[K+] [potassium carbonate],taste profile relative to the control sample,[3],not significantly affected
[Cl-].[K+] [potassium chloride],"taste profile results, potassium chloride vs sodium chloride",[4],Substantially same results
[Cl-].[Na+] [sodium chloride],effect of added component on the taste profile,[5],improved the “aftertaste” profile
same,"taste profile results, potassium chloride vs sodium chloride",[4],Substantially same results
C=C1C[C@@]23CC[C@H]4[C@@](C)(CCC[C@@]4(C)C(=O)O)[C@@H]2CC[C@]1(O[C@@H]1O[C@H](CO)[C@@H](O)[C@H](O)[C@H]1O[C@@H]1O[C@H](CO)[C@@H](O)[C@H](O)[C@H]1O)C3 [steviolbioside],taste profile relative to control sample 10-1,[6],not significantly affected
C=C1C[C@@]23CC[C@H]4[C@@](C)(CCC[C@@]4(C)C(=O)O[C@@H]4O[C@H](CO)[C@@H](O)[C@H](O)[C@H]4O)[C@@H]2CC[C@]1(O[C@@H]1O[C@H](CO)[C@@H](O)[C@H](O)[C@H]1O[C@@H]1O[C@H](CO)[C@@H](O)[C@H](O)[C@H]1O)C3 [stevioside],taste profile relative to control sample 10-1,[6],not significantly affected
same,solubility / dissolution (in words),[2]; powder in water at 25° C.,very low solubility
rebaudioside C [Reb-C],taste profile relative to control sample 10-1,[6],not significantly affected
